Results: publication PMC9091336, “Functional Characterization of Odorant Binding Protein PyasOBP2 From the Jujube Bud Weevil, Pachyrhinus yasumatsui (Coleoptera: Curculionidae)” (Frontiers in Physiology, 2022)

Target: PyasOBP2
Test: Fluorescence competitive binding assay with 1-NPN as probe
Parameters: species or system Pachyrhinus yasumatsui
Conditions: PyasOBP2 2 μM, 1-NPN 2 μM, ligand 0 to 20 μM, three replicates
Description: (§1) Fluorescence competitive binding assays were carried out on an F-2700 fluorescence spectrophotometer (Hitachi, Tokyo, Japan) to determine the binding affinity of PyasOBP2. 1-N-phenyl-naphthylamine (1-NPN) was used as a fluorescent probe ([Pelosi et al., 2006]) with excitation at 337 nm, and the emission spectra were measured from 370 to 550 nm. Based on gas chromatography-mass spectrometry (GC-MS) and previous studies ([Yan et al., 2017]; [Yan et al., 2020]), 38 volatiles derived from Z. jujuba were selected as putative ligands for fluorescence competitive binding assays (Table 2). 1-NPN and all ligands used in binding assays were diluted in methanol to 1 mM stock solutions. To measure the binding affinity of PyasOBP2 with 1-NPN, PyasOBP2 solution (with a final concentration of 2 μM) was titrated with 1-NPN to final concentrations ranging from 2 to 20 μM. In ligand-binding assays, each ligand with a concentration ranging from 0 to 20 μM was added into a mixture of PyasOBP2 (2 μM) and 1-NPN (2 μM), and maximal fluorescence intensities were plotted against ligand concentrations based on three replicates.
The dissociation constant K1-NPN (for PyasOBP2 binding with 1-NPN) was calculated with Scatchard plotting of binding data in the GraphPad Prism 8.0 Software ([Sideris et al., 1992]). The dissociation constant (Ki) of each ligand was calculated with Eq. 3, as described by [Cui et al. (2018)]. The ligand binding affinity to PyasOBP2 was considered as very strong (Ki≤5 μM), strong (5 μM<Ki≤10 μM), moderate (10 μM<Ki≤20 μM) and weak (Ki>20 μM) in this study. Ki=IC50/(1+[1−NPN]/K1−NPN) (3)

| IC50 [µM] | SMILES |
| --- | --- |
| 7.54 | C=CC(C)(O)CCC=C(C)CCC=C(C)C (mixture of isomers) [Nerolidol] |
| > 20 | CCCCCCCCCCCCCCCC(=O)OC [Methyl palmitate] |
| 11.8 | C=CC(=C)CCC=C(C)C [Myrcene] |
| 15.6 | CCCCCCCCC=O [Nonanal] |
| 10.5 | C=CC(C)=CCC=C(C)C [Ocimene] |
| 7.81 | CCCCCCCC=O [Octanal] |
| > 20 | CC(C)=CCC/C(C)=C/CC/C(C)=C/CC/C=C(\C)CC/C=C(\C)CCC=C(C)C [Squalene] |
| 8.06 | CC/C=C\CCO [cis-3-Hexen-1-ol] |
| > 20 | CC/C=C\CCOC(=O)CC(C)C [cis-3-Hexenyl 3-methylbutanoate] |
| > 20 | CC/C=C\CCOC(C)=O [cis-3-Hexenyl acetate] |
| 8.93 | CCC/C=C/CO [trans-2-Hexen-1-ol] |
| 10.7 | CC1=CC[C@H](C(C)C)C=C1 [α-Phellandrene] |
| 10.8 | CC1=CCC2CC1C2(C)C (stereo not drawn) [α-Pinene] |
| > 20 | C=C1CC/C=C(\C)CC[C@@H]2[C@@H]1CC2(C)C [β-Caryophyllene] |

More lines, now with the values behind:

| SMILES | IC50 [µM] |
| --- | --- |
| C=CC(O)CC (centres unmarked) [1-Penten-3-ol] | > 20 |
| CC(C)=Cc1ccccc1 [2-Methyl-1-phenylpropene] | 5.42 |
| CC/C=C\CCOC(=O)C(C)CC (stereo not drawn) [2-Methylbutyric Acid cis-3-Hexen-1-yl Ester] | 11.9 |
| CC1=CCC2C(C1)C2(C)C (centres unmarked) [3-Carene] | > 20 |
| N#Cc1ccccc1 [Benzonitrile] | > 20 |
| OCc1ccccc1 [Benzyl alcohol] | 16.2 |
| CCCCOC(C)=O [Butyl acetate] | > 20 |
| C=C1C2CCC(C2)C1(C)C (centres unmarked) [Camphene] | 8.33 |
| CCCCCC=O [Caproaldehyde] | 10.9 |
| CCCCOC(=O)c1ccccc1C(=O)OCCCC [Dibutyl phthalate] | 10.5 |
| C=C(C)[C@H]1CC=C(C)CC1 [Dipentene] | 7.05 |
| CCCCCCCCCCCC [Dodecane] | > 20 |
| CCOC(=O)C(C)CC (centres unmarked) [Ethyl 2-methylbutyrate] | > 20 |
| CCCC(=O)OCC [Ethyl butyrate] | 3.55 |
| CCOC(=O)CC(C)C [Ethyl isovalerate] | > 20 |
| CCCCC(=O)OCC [Ethyl valerate] | > 20 |
| CC12CCC(CC1)C(C)(C)O2 [Eucalyptol] | 15.1 |
| C=CCc1ccc(O)c(OC)c1 [Eugenol] | > 20 |
| CC(C)=CCCC(C)=CC#N [Geranyl nitrile] | > 20 |
| CCCCCCC=O [Heptaldehyde] | 15.4 |
| CC(C)C=O [Isobutyraldehyde] | 13 |
| C=CC(C)(O)CCC=C(C)C (centres unmarked) [Linalool] | 11.6 |
| CCCCCCCC/C=C\CCCCCCCC(=O)OC [Methyl oleate] | > 20 |
| CCC/C=C/C=O [trans-2-Hexen-1-al] | 15.8 |

Same assay, conditions: dissociation constant calculated from IC50 by Ki=IC50/(1+[1-NPN]/K1-NPN); PyasOBP2 2 μM, 1-NPN 2 μM

| Ki [µM] | SMILES |
| --- | --- |
| 6.41 | C=CC(C)(O)CCC=C(C)CCC=C(C)C (mixture of isomers) [Nerolidol] |
| > 20 | CCCCCCCCCCCCCCCC(=O)OC [Methyl palmitate] |
| 8.92 | C=CC(=C)CCC=C(C)C [Myrcene] |
| 13.2 | CCCCCCCCC=O [Nonanal] |
| 8.92 | C=CC(C)=CCC=C(C)C [Ocimene] |
| 6.64 | CCCCCCCC=O [Octanal] |
| 6.85 | CC/C=C\CCO [cis-3-Hexen-1-ol] |
| 6.6 | CCC/C=C/CO [trans-2-Hexen-1-ol] |
| 9.12 | CC1=CC[C@H](C(C)C)C=C1 [α-Phellandrene] |
| 9.18 | CC1=CCC2CC1C2(C)C (stereo not drawn) [α-Pinene] |

The next lines start with the molecule.

| SMILES | Ki [µM] |
| --- | --- |
| CC(C)=Cc1ccccc1 [2-Methyl-1-phenylpropene] | 4.61 |
| CC/C=C\CCOC(=O)C(C)CC (stereo not drawn) [2-Methylbutyric Acid cis-3-Hexen-1-yl Ester] | 10.1 |
| CC1=CCC2C(C1)C2(C)C (centres unmarked) [3-Carene] | > 20 |
| OCc1ccccc1 [Benzyl alcohol] | 12 |
| CCCCOC(C)=O [Butyl acetate] | > 20 |
| C=C1C2CCC(C2)C1(C)C (centres unmarked) [Camphene] | 7.08 |
| CCCCCC=O [Caproaldehyde] | 8.03 |
| CCCCOC(=O)c1ccccc1C(=O)OCCCC [Dibutyl phthalate] | 7.73 |
| C=C(C)[C@H]1CC=C(C)CC1 [Dipentene] | 5.99 |
| CCCC(=O)OCC [Ethyl butyrate] | 3.02 |
| CC12CCC(CC1)C(C)(C)O2 [Eucalyptol] | 12.8 |
| CCCCCCC=O [Heptaldehyde] | 11.4 |
| CC(C)C=O [Isobutyraldehyde] | 11 |
| C=CC(C)(O)CCC=C(C)C (centres unmarked) [Linalool] | 9.88 |
| CCC/C=C/C=O [trans-2-Hexen-1-al] | 13.4 |

Same assay, conditions: dissociation constant calculated from IC50 by Ki=IC50/(1+[1-NPN]/K1-NPN); PyasOBP2 2 μM, 1-NPN 2 μM; listed as cis-3-hexen-1-ol

| Ki [µM] | SMILES |
| --- | --- |
| < 10 | CC/C=C\CCO [cis-3-Hexen-1-ol] |

Same assay, conditions: dissociation constant calculated from IC50 by Ki=IC50/(1+[1-NPN]/K1-NPN); PyasOBP2 2 μM, 1-NPN 2 μM; listed as dipentene

| Ki [µM] | SMILES |
| --- | --- |
| < 5 | C=C(C)[C@H]1CC=C(C)CC1 [Dipentene] |

Same assay, conditions: dissociation constant calculated from IC50 by Ki=IC50/(1+[1-NPN]/K1-NPN); PyasOBP2 2 μM, 1-NPN 2 μM; listed as ethyl butyrate

| Ki [µM] | SMILES |
| --- | --- |
| < 5 | CCCC(=O)OCC [Ethyl butyrate] |

Same assay, conditions: dissociation constant calculated from IC50 by Ki=IC50/(1+[1-NPN]/K1-NPN); PyasOBP2 2 μM, 1-NPN 2 μM; listed as linalool

| Ki [µM] | SMILES |
| --- | --- |
| < 10 | C=CC(C)(O)CCC=C(C)C (centres unmarked) [Linalool] |

Same assay, conditions: dissociation constant calculated from IC50 by Ki=IC50/(1+[1-NPN]/K1-NPN); PyasOBP2 2 μM, 1-NPN 2 μM; listed as nerolidol

| Ki [µM] | SMILES |
| --- | --- |
| < 10 | C=CC(C)(O)CCC=C(C)CCC=C(C)C (mixture of isomers) [Nerolidol] |

Same assay, conditions: dissociation constant calculated from IC50 by Ki=IC50/(1+[1-NPN]/K1-NPN); PyasOBP2 2 μM, 1-NPN 2 μM; listed as nonanal

| Ki [µM] | SMILES |
| --- | --- |
| < 20 | CCCCCCCCC=O [Nonanal] |

Same assay, conditions: dissociation constant calculated from IC50 by Ki=IC50/(1+[1-NPN]/K1-NPN); PyasOBP2 2 μM, 1-NPN 2 μM; listed as ocimene

| Ki [µM] | SMILES |
| --- | --- |
| < 10 | C=CC(C)=CCC=C(C)C [Ocimene] |

Same assay, conditions: dissociation constant calculated from IC50 by Ki=IC50/(1+[1-NPN]/K1-NPN); PyasOBP2 2 μM, 1-NPN 2 μM; listed as trans-2-hexen-1-ol

| Ki [µM] | SMILES |
| --- | --- |
| < 10 | CCC/C=C/CO [trans-2-Hexen-1-ol] |

Same assay, conditions: fluorescence competitive binding, ligand up to 20 μM

| binding to PyasOBP2 (in words) | SMILES |
| --- | --- |
| could not bind | CCCCCCCCCCCCCCCC(=O)OC [Methyl palmitate] |
| could not bind | CC(C)=CCC/C(C)=C/CC/C(C)=C/CC/C=C(\C)CC/C=C(\C)CCC=C(C)C [Squalene] |

More lines, now with the values behind:

| SMILES | binding to PyasOBP2 (in words) |
| --- | --- |
| N#Cc1ccccc1 [Benzonitrile] | could not bind to PyasOBP2 |
| CCCCCCCCCCCC [Dodecane] | could not bind to PyasOBP2 |
| C=CCc1ccc(O)c(OC)c1 [Eugenol] | could not bind to PyasOBP2 |
| CC(C)=CCCC(C)=CC#N [Geranyl nitrile] | could not bind to PyasOBP2 |
| CCCCCCCC/C=C\CCCCCCCC(=O)OC [Methyl oleate] | could not bind |

Target: PyasOBP2
Test: Binding of fluorescent probe 1-NPN to PyasOBP2 (titration, Scatchard plot)
Parameters: species or system Pachyrhinus yasumatsui
Conditions: PyasOBP2 2 μM titrated with 1-NPN 2 to 20 μM, read-out: dissociation constant of PyasOBP2 with 1-NPN
Description: as §1, with “To measure the binding affinity of PyasOBP2 with 1-NPN, PyasOBP2 solution (with a final concentration of 2 μM) was titrated with 1-NPN to final concentrations ranging from 2 to 20 μM.” left out
The dissociation constant K1-NPN (for PyasOBP2 binding with 1-NPN) was calculated with Scatchard plotting of binding data in the GraphPad Prism 8.0 Software ([Sideris et al., 1992]). The dissociation constant (Ki) of each ligand was calculated with Eq. 3, as described by [Cui et al. (2018)]. […]

| SMILES | Kd [µM] |
| --- | --- |
| c1ccc(Nc2cccc3ccccc23)cc1 [1-NPN, 1-N-phenyl-naphthylamine] | 5.66 |

System: adult P. yasumatsui antennae
Test: not given
Parameters: method as in Yan et al., 2017; Yan et al., 2020
Conditions: ref Yan et al., 2017, 2020; cited from earlier work

| SMILES | EAG response |
| --- | --- |
| CCCCCCCCCCCCCCCC(=O)OC [Methyl palmitate] | strong EAG responses |
| CCCCCCCCC=O [Nonanal] | strong EAG responses |
| C=CC(C)=CCC=C(C)C [Ocimene] | strong EAG responses |

System: P. yasumatsui adults
Test: not given
Parameters: method as in Yan et al., 2017; Yan et al., 2020
Conditions: volatiles emitted from jujube shoots, ref Yan et al., 2017, 2020; cited from earlier work

| SMILES | attraction of adults |
| --- | --- |
| CCCCCCCCCCCCCCCC(=O)OC [Methyl palmitate] | significantly attracted |
| CCCCCCCCC=O [Nonanal] | significantly attracted |
| C=CC(C)=CCC=C(C)C [Ocimene] | significantly attracted |
| C=C/C(C)=C/C/C=C(\C)CCC=C(C)C [α-farnesene] | significantly attracted |
